Laboratory results reported in paper PMC6416309, “Crystal structures of thiamine monophosphate kinase from Acinetobacter baumannii in complex with substrates and products” (Scientific Reports, 2019).

Columns and labels:
[1] = biological target: T1, AbThiL (ThiL, thiamine monophosphate kinase) (Acinetobacter baumannii, UniProt A0A0D5YC82); assay: X-ray crystallography (co-crystal), […] A monoclinic and […] A orthorhombic; assay type: binding; conditions: 5 mM ADP/TPP/MgCl2, paper assigns 5CM7, 5D9U and 6MFM to the two crystal forms inconsistently
T1 construct: non-cleavable N-terminal His6-tag (vector pBG1861), expressed in E. coli Rosetta BL21(DE3)R3; modelled Met1/Ala2 to Phe304/C-terminal Ala305; homodimer, active site at dimer interface
T1 sequence (A0A0D5YC82 1-305): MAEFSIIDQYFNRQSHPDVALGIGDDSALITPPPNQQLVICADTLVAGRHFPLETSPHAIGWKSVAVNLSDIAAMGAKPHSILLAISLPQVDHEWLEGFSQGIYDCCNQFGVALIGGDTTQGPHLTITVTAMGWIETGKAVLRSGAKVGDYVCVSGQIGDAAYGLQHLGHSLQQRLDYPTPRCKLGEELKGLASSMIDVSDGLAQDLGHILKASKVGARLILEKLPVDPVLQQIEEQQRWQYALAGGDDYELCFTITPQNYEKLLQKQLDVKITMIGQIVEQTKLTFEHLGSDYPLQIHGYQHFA

[2] = biological target: T1, AbThiL (ThiL, thiamine monophosphate kinase); assay: X-ray crystallography (co-crystal), […] A; assay type: binding; conditions: AMPPNP alone, 5 mM AMPPNP/MgCl2, NaBr; ATP site; also with TMP in 5DD7
[3] = biological target: T1, AbThiL (ThiL, thiamine monophosphate kinase); assay: X-ray crystallography (overnight soak of AMPPNP co-crystals), […] A; assay type: binding; conditions: ternary complex with AMPPNP; Mg2+; 5 mM AMPPNP/TMP/MgCl2; K/Na-tartrate, HEPES pH 7.5; active site at dimer interface
[4] = biological target: the molecule itself; assay: crystal structure; AbThiL co-crystallised or soaked with AMPPNP, AMPPNP/TMP or ADP/TPP and MgCl2; orthorhombic (P21212) and monoclinic (P21) crystal forms; sitting drops at 287 K

Nc1ncnc2c1ncn2[C@@H]1O[C@H](COP(=O)(O)OP(=O)(O)O)[C@@H](O)[C@H]1O [ADP]
X-ray crystallography (co-crystal), 1.55 A monoclinic and 1.90 A orthorhombic ([1]; ternary complex with TPP, ATP/ADP site): with the products ADP/TDP (orthorhombic and monoclinic)

Nc1ncnc2c1ncn2[C@@H]1O[C@H](COP(=O)(O)OP(=O)(O)NP(=O)(O)O)[C@@H](O)[C@H]1O [AMPPNP]
X-ray crystallography (co-crystal), 1.75 A [2]: AbThiL in complex with AMPPNP alone (orthorhombic)

Cc1ncc(C[n+]2csc(CCOP(=O)(O)O)c2C)c(N)n1 [TMP]
X-ray crystallography (overnight soak of AMPPNP co-crystals), 1.70 A [3]: AbThiL in complex with AMPPNP alone (orthorhombic), the substrate analogs AMPPNP/TMP (orthorhombic)

Cc1ncc(C[n+]2csc(CCOP(=O)(O)OP(=O)(O)O)c2C)c(N)n1 [TPP]
X-ray crystallography (co-crystal), 1.55 A monoclinic and 1.90 A orthorhombic ([1]; ternary complex with ADP, TMP/TPP site): with the products ADP/TDP (orthorhombic and monoclinic)

B1: Thiamine monophosphate kinase (ThiL) from Acinetobacter baumannii (enzyme, UniProt A0A0D5YC82 1-305, looked up)
chain: T1 sequence (A0A0D5YC82 1-305)
notes: Thiamine monophosphate kinase (ThiL), Acinetobacter baumannii strain AB5075-UW, gene amplified from genomic DNA; The vector pBG1861 provides a non-cleavable N-terminal His6-tag; also called AbThiL; not shown: His6, N-terminal, kept
stoichiometry N [4]: 2
